Measured values reported in patent US12098151B2 (priority 2018, dated 2024).
Like-named read-outs stand apart in the source and are kept apart here.

What was measured:
[1] = system: LCMV; experiment: microbe, parasite or virus in culture; format: cell-based, lymphocytic choriomeningitis virus (LCMV)
[2] = system: Junin virus; experiment: microbe, parasite or virus in culture; format: cell-based
[3] = Mammarenavirus choriomeningitidis, KB, 96 h
[4] = Mammarenavirus juninense, HEK-293T, 96 h

| SMILES | EC50 [1, 3] [nM] | EC50 [2, 4] [nM] | further results |
| --- | --- | --- | --- |
| CC(C)N1CN(C2c3ccccc3C3C(c4ccccc42)C3(F)F)n2cc(C(=O)O)c(=O)c(O)c2C1=O (single isomer, unassigned) [III-010] | 9.9 | 10 | – |
| O=C(O)c1cn2c(c(O)c1=O)C(=O)N1CCOC[C@H]1N2[C@@H]1c2ccccc2SCc2c1ccc(F)c2F [Compound I-001] | – | – | EC50 ([1]; read-out: EC50): 115 nM; EC50 ([2]; read-out: EC50): 111 nM |
| C[C@@H](N1CN([C@H]2c3ccccc3CSc3ccccc32)n2cc(C(=O)O)c(=O)c(O)c2C1=O)C(F)(F)F [Compound I-004] | 12 | 15 | – |
| CCN1CN(C(c2ccccc2)c2ccccc2)n2cc(C(=O)O)c(=O)c(O)c2C1=O [Compound I-005] | 53 | 28 | – |
| CC1N(C)C(=O)c2c(O)c(=O)c(C(=O)O)cn2N1C(c1ccccc1)c1ccccc1 (centres unmarked) [Compound I-006] | 136 | 36 | – |
| CCN1C(=O)c2c(O)c(=O)c(C(=O)O)cn2C(C(c2ccccc2)c2ccccc2)N1CC (centres unmarked) [Compound I-007] | 65 | 138 | – |
| CN1CN(C(c2ccccc2)c2ccccc2)n2cc(C(=O)O)c(=O)c(O)c2C1=O [Compound I-008] | 205 | 239 | – |
| CN1C(=O)c2c(O)c(=O)c(C(=O)O)cn2C(C(c2ccccc2)c2ccccc2)N1C (centres unmarked) [Compound I-009] | 143 | 405 | – |
| CCN1CN(Cc2ccc(-c3ccccc3)cc2)n2cc(C(=O)O)c(=O)c(O)c2C1=O [Compound I-010] | 328 | 579 | – |
| CC1Nn2cc(C(=O)O)c(=O)c(O)c2C(=O)N1C (centres unmarked) [Compound I-011] | 1930 | 1670 | – |
| COCCN1C[C@H](C(c2ccccc2)c2ccccc2)n2cc(NC(=O)OC)c(=O)c(O)c2C1=O [Compound I-012] | – | 3000 | – |
| CC(C)N1CN(C2c3ccccc3CSc3ccccc32)n2cc(C(=O)O)c(=O)c(O)c2C1=O (centres unmarked) [Compound I-019] | – | – | EC50 [1]: 2.2 nM; EC50 [2]: 6.9 nM |
| O=C(O)c1cn2c(c(O)c1=O)C(=O)N(Cc1ccc(F)cc1F)C[C@@H]2C(c1ccccc1)c1ccccc1 [Compound I-020] | 5.9 | 7.1 | – |
| COCCN1C(=O)c2c(O)c(=O)c(C(=O)O)cn2N(C2c3ccccc3CCc3ccccc32)C1CCSC (centres unmarked) [Compound I-022] | 1.6 | 10 | – |
| O=C(O)c1cn2c(c(O)c1=O)C(=O)N(Cc1cccc(Cl)c1F)C[C@@H]2C(c1ccccc1)c1ccccc1 [Compound I-023] | 2.2 | 11 | – |
| CC(C)=CCN1C[C@H](C(c2ccccc2)c2ccccc2)n2cc(C(=O)O)c(=O)c(O)c2C1=O [Compound I-024] | 14 | 12 | – |
| O=C(O)c1cn2c(c(O)c1=O)C(=O)N(Cc1ccccn1)C[C@@H]2C(c1ccccc1)c1ccccc1 [Compound I-025] | 5 | 13 | – |
| O=C(O)c1cn2c(c(O)c1=O)C(=O)N(CC1CCCCO1)C[C@@H]2C(c1ccccc1)c1ccccc1 (some centres unmarked) [Compound I-026] | 6.9 | 17 | – |
| Cc1cc(CN2C[C@H](C(c3ccccc3)c3ccccc3)n3cc(C(=O)O)c(=O)c(O)c3C2=O)no1 [Compound I-027] | 9.4 | 19 | – |
| O=C(O)c1cn2c(c(O)c1=O)C(=O)N(CC1CC1)C[C@@H]2C(c1ccccc1)c1ccccc1 [Compound I-028] | 13 | 40 | – |
| CN1C[C@H](C2c3ccccc3CSc3ccccc32)n2cc(C(=O)O)c(=O)c(O)c2C1=O (some centres unmarked) [Compound I-029] | < 31 | 42 | – |

| SMILES | EC50 [1, 3] [nM] | EC50 [2, 4] [nM] | further results |
| --- | --- | --- | --- |
| O=C(O)c1cn2c(c(O)c1=O)C(=O)N(Cc1cccnc1)C[C@@H]2C(c1ccccc1)c1ccccc1 [Compound I-030] | 31 | 44 | – |
| CCCC(C)N1C[C@H](C(c2ccccc2)c2ccccc2)n2cc(C(=O)O)c(=O)c(O)c2C1=O (some centres unmarked) [Compound I-031] | 20 | 45 | – |
| CCCN1C[C@H](C(c2ccccc2)c2ccccc2)n2cc(C(=O)O)c(=O)c(O)c2C1=O [Compound I-032] | 18 | 64 | – |
| CCC(C)N1C[C@H](C(c2ccccc2)c2ccccc2)n2cc(C(=O)O)c(=O)c(O)c2C1=O (some centres unmarked) [Compound I-033] | 15 | 68 | – |
| O=C(O)c1cn2c(c(O)c1=O)C(=O)N(CC1CCOCC1)C[C@@H]2C(c1ccccc1)c1ccccc1 [Compound I-034] | 32 | 68 | – |
| CC(C)OCCN1C[C@H](C(c2ccccc2)c2ccccc2)n2cc(C(=O)O)c(=O)c(O)c2C1=O [Compound I-035] | < 6 | 71 | – |
| COCCN1C(=O)c2c(O)c(=O)c(C(=O)O)cn2C[C@H]1C(c1ccccc1)c1ccccc1 [Compound I-036] | 69 | 74 | – |
| CC(C)N1C[C@H](C(c2ccccc2)c2ccccc2)n2cc(C(=O)O)c(=O)c(O)c2C1=O [Compound I-037] | 24 | 82 | – |
| CCOCCN1C[C@H](C(c2ccccc2)c2ccccc2)n2cc(C(=O)O)c(=O)c(O)c2C1=O [Compound I-038] | 28 | 148 | – |
| COCCN1C[C@H](C(c2ccccc2)c2ccccc2)n2cc(C(=O)O)c(=O)c(O)c2C1=O [Compound I-039] | 17 | 240 | – |
| C#CCN1C[C@H](C(c2ccccc2)c2ccccc2)n2cc(C(=O)O)c(=O)c(O)c2C1=O [Compound I-040] | 44 | 173 | – |
| O=C(O)c1cn2c(c(O)c1=O)C(=O)N(Cc1ccccc1)C[C@@H]2C(c1ccccc1)c1ccccc1 [Compound I-041] | 6.2 | 180 | – |
| CN1C(=O)c2c(O)c(=O)c(C(=O)O)cn2C[C@H]1C(c1ccccc1)c1ccccc1 [Compound I-042] | 58 | 255 | – |
| O=C(O)c1cn2c(c(O)c1=O)C(=O)N1CCCCN1C2C(c1ccccc1)c1ccccc1 (centres unmarked) [Compound I-043] | 119 | 281 | – |
| COCCCN1C[C@H](C(c2ccccc2)c2ccccc2)n2cc(C(=O)O)c(=O)c(O)c2C1=O [Compound I-044] | 40 | 354 | – |
| COCCN1C[C@H](C(c2ccccc2)c2ccccc2)n2cc(C(=O)O)c(=O)c(O)c2C1=O [Compound I-045] | – | – | EC50 [1]: 24 nM; EC50 [2]: 374 nM |
| CN1C[C@H](C(c2ccccc2)c2ccccc2)n2cc(C(=O)O)c(=O)c(O)c2C1=O [Compound I-046] | 69 | 382 | – |
| O=C(O)c1cn2c(c(O)c1=O)C(=O)N1CCCO[C@H]1[C@@H]2C(c1ccccc1)c1ccccc1 [Compound I-047] | 372 | 414 | – |
| O=C(O)c1cn2c(c(O)c1=O)C(=O)N(CCOc1ccc(F)cc1)C[C@@H]2C(c1ccccc1)c1ccccc1 [Compound I-048] | 56 | 518 | – |
| O=C(O)c1cn2c(c(O)c1=O)C(=O)N(CC(F)(F)F)C[C@@H]2C(c1ccccc1)c1ccccc1 [Compound I-049] | 160 | 620 | – |
| O=C(O)c1cn2c(c(O)c1=O)C(=O)N1CCCO[C@@H]1[C@@H]2C(c1ccccc1)c1ccccc1 [Compound I-050] | – | 640 | – |

| SMILES | EC50 [1, 3] [nM] | EC50 [2, 4] [nM] | further results |
| --- | --- | --- | --- |
| O=C(O)c1cn2c(c(O)c1=O)C(=O)N(Cc1ccccc1)CC2Cc1ccccc1 (centres unmarked) [Compound I-051] | 722 | 739 | – |
| O=C(O)c1cn2c(c(O)c1=O)C(=O)N(Cc1ccc(F)cc1)CN2Cc1ccc(-c2ccccc2)cc1 [Compound I-052] | – | 751 | – |
| O=C(O)c1cn2c(c(O)c1=O)C(=O)NC[C@@H]2C(c1ccccc1)c1ccccc1 [Compound I-053] | 275 | 987 | – |
| O=C(O)c1cn2c(c(O)c1=O)C(=O)N1CCCO[C@@H]1[C@@H]2Cc1ccccc1 [Compound I-054] | 1960 | 1620 | – |
| CC(C)N1CC(Cc2ccccc2)n2cc(C(=O)O)c(=O)c(O)c2C1=O (centres unmarked) [Compound I-055] | – | 1870 | – |
| COCCN1C[C@H](CC2CCCCC2)n2cc(C(=O)O)c(=O)c(O)c2C1=O [Compound I-056] | – | 2030 | – |
| COCCN1C[C@H](Cc2ccccc2)n2cc(C(=O)O)c(=O)c(O)c2C1=O [Compound I-057] | 225 | 2180 | – |
| O=C(O)c1cn2c(c(O)c1=O)C(=O)N[C@H](C(c1ccccc1)c1ccccc1)C2 [Compound I-059] | 772 | – | – |
| O=C(O)c1cn2c(c(O)c1=O)C(=O)N1CCCO[C@H]1[C@@H]2Cc1ccccc1 [Compound I-062] | 2410 | – | – |
| O=C(O)CN1C[C@H](C(c2ccccc2)c2ccccc2)n2cc(C(=O)O)c(=O)c(O)c2C1=O [Compound I-063] | 280 | – | – |
| CCOC(=O)c1cn2c(c(O)c1=O)C(=O)N(CCOC)C[C@@H]2C(c1ccccc1)c1ccccc1 [Compound I-066] | 250 | – | – |
| CCN1CN(C(c2ccccc2)c2ccccc2)n2c(C)c(C(=O)O)c(=O)c(O)c2C1=O [Compound I-072] | – | – | EC50 ([2]; read-out: EC50): 14 nM |
| CCN1CN(Cc2ccc(-c3ccccc3OC)s2)n2c(C)c(C(=O)O)c(=O)c(O)c2C1=O [Compound I-073] | – | – | EC50 ([2]; read-out: EC50): 65 nM |
| CC(C)N1CN(C2c3cc(F)c(F)cc3CCc3cc(F)c(F)cc32)n2cc(C(=O)O)c(=O)c(O)c2C1=O [Compound I-074] | 48 | 50 | – |
| Cc1cccc2c1CCc1c(C)cccc1C2N1CN(C(C)C)C(=O)c2c(O)c(=O)c(C(=O)O)cn21 [Compound I-075] | 3.1 | 1.7 | – |
| Cc1ccc2c(c1)CCc1cc(C)ccc1C2N1CN(C(C)C)C(=O)c2c(O)c(=O)c(C(=O)O)cn21 [Compound I-076] | 13 | 34 | – |
| CC(C)N1CN(C2c3cccc(F)c3CCc3c(F)cccc32)n2cc(C(=O)O)c(=O)c(O)c2C1=O [Compound I-077] | 3.3 | 1.8 | – |
| COCCN1CN(C2c3ccccc3CCc3ccccc32)n2cc(C(=O)O)c(=O)c(O)c2C1=O [Compound I-079] | 5.3 | 5 | – |
| CC(C)N1CN(Cc2ccccc2-c2ccccc2)n2cc(C(=O)O)c(=O)c(O)c2C1=O [Compound I-080] | 499 | 437 | – |
| CCN(CC)CCN1CN(C2c3ccccc3CCc3ccccc32)n2cc(C(=O)O)c(=O)c(O)c2C1=O [III-022] | > 1000 | – | – |
| CC(C)N1CN(Cc2ccccc2)n2cc(C(=O)O)c(=O)c(O)c2C1=O [III-026] | > 1000 | – | – |
